Experiments:
Type in all cases: cell-based
mOR-I7 [1] = biological target: T1, mOR-I7 (Mus musculus, UniProt Q9QWU6); test: Single cell calcium imaging (Fura2) on HEK 293T overexpressing mOR-I7, with or without mucus in buffer; conditions: 500 μM octanal
T1 construct: expressed in transfected cells; host or cells: HEK 293T
T1 sequence (Q9QWU6 1-327): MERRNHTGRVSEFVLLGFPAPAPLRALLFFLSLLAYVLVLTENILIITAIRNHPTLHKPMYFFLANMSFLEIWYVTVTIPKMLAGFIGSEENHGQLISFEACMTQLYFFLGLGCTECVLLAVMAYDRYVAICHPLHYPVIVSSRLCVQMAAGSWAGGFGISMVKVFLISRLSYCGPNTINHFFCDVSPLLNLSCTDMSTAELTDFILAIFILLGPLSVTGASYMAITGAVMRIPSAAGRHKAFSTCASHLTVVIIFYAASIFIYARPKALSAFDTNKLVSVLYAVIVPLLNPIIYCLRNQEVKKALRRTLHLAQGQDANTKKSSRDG
Protocol: FIG. 2: Bovine olfactory mucus enhances hORL-424 activation by citronellal. (A and B) Calcium measurement was performed after activation of hORL-424 with citronellal in the presence of different amount of bovine olfactory mucus. 0 to 10 μl of mucus (0 to 10 μg of total protein) have been added to assay buffer. Calcium flux has been followed on FDSS (Hamamatsu Photonics K.K. plate reader, Japan) using Fluo4 as fluorescent dye. Histograms represent fluorescent signal observed in the presence or in the absence of 10 μl of bovine olfactory mucus. (C) Concentration response curve of HEK 293T overexpressing hORL-424 treated with citronellal. Gray boxes represent values obtained in the presence of bovine olfactory mucus. Calcium flux measurements have been performed on FDSS (Hamamatsu Photonics K.K. plate reader, Japan). (D and E) Traces obtained during single cell calcium imaging after addition of 500 μM octanal on HEK 293T overexpressing mOR-I7 in the absence (D) or in the presence of 10 μl of bovine olfactory mucus (E). Fura2 was used as fluorescent dye. Results are expressed as F340/F380 ratiometric measurement.
This bovine olfactory mucus property was also observed on a different OR in other assay format. FIGS. 2 D and E show traces obtained from single cell calcium imaging performed on HEK 293T overexpressing mOR-I7 and activated by octanal. In this assay, Fura2 was used as calcium tracer.

HEK 293T wt = test: CCBSA microplate calcium flux on HEK 293T wild type cells (specificity control)
Protocol: A solution of BP including SA, OBP and/or olfactory mucus (see concentration in the text) was incubated in the presence of odorant in a sealed flask for 16 hours at 4° C. (FIG. 3A). Such incubated-BP solution was then used as tested complex on olfactory receptor-expressing cells. Prior to incubation with such complex, cells were incubated for 1 hour with 4 μM Fluo4-AM (Molecular Probe) in the presence of 1 mM probenecid, and then rinsed twice with Fluo4-AM free HBSS buffer. After injection of odorant-BP complex on OR expressing cells, calcium flux was followed by measuring fluorescence at 520 nm ([…]) on FDSS, a plate reader from Hamamatsu Photonics K.K. (Japan) at 25° C.
For this novel assay, mOR-I7 activation was assessed by octanal. A constant volume of olfactory mucus was incubated in the presence of increasing amount of octanal ranging from 0 to 16 μl of a solution of 1M octanal. […] Calcium flux was followed with Fluo4 on FDSS, a plate reader from Hamamatsu Photonics K.K. (Japan).
However this fraction 4 contained two major proteins, bOBP and BSA. […] Calcium-flux was followed on a plate reader (Hamamatsu Photonics K.K., Japan) with fluo4 as fluorescent dye (FIG. 6 A to F). […] Such phenomenon is usually observed in such fluorescence assay when increasing ligand concentrations are injected.

mOR-I7 [2] = biological target: T1, mOR-I7; test: CCBSA single cell calcium imaging (Fluo4) on HEK 293T overexpressing mOR-I7; conditions: bovine olfactory mucus incubated with 16 μl of 1M octanal, 16 hours 4° C.; 20 cells
Protocol: FIG. 3: Development of a novel olfactory functional assay. (A) Scheme of the novel assay according to the present invention, CCBSA. See details in the text. (B) Application of CCBSA on a microplate format fluorescent cell-based assay. Increasing volume of octanal were incubated in CCBSA, and applied on HEK 293T cell line overexpressing or not mOR-I7. Calcium flux was followed with fluo4 as calcium tracer. (C) Application of CCBSA on single cell calcium imaging assay. Octanal was incubated in CCBSA and applied on HEK 293T overexpressing mOR-I7. Upper panel depicts kinetics of calcium flux followed with fluo4 as calcium tracer. Octanal-incubated bovine olfactory mucus was applied at 50 s and ATP as positive control was applied at 310 s. Forty X objective was used for this experiment. Middle panel show kinetics of 20 individual cells taken off the field represented in the upper panel. Finally, a representation of the average of the 20 traces is given in the lower panel.
To further validate this assay, single cell calcium imaging assays following the same approach were performed (FIG. 3C). Bovine olfactory mucus was incubated in the presence of 16 μl of a 1M octanal solution for 16 hours at 4° C. […]
This novel assay allows thus an efficient solubilization of odorant and greatly improves the efficacy of the molecule. […] Such disproportion has never been detected in a conventional assay. […]

mOR-I7 activation (calcium flux) (mOR-I7 [1]; absence of mucus): faint activation | activation of cells overexpressing mOR-I7 (single cell fluorescence kinetics) (mOR-I7 [2]): activated
Compound: CCCCCCCC=O [octanal]
mOR-I7 activation (calcium flux) (mOR-I7 [1]; presence of 10 μl bovine olfactory mucus, ATP positive control): calcium flux similar to the one observed after addition of ATP | cell response on wt cells (HEK 293T wt; bovine olfactory mucus incubated with octanal): no cell response | fluorescence in HEK 293T wt (HEK 293T wt; fraction 4 or BSA solution (5×10^−6 M) incubated with 1M octanal): no fluorescence appeared
